Data on 30 compounds can be found in patent US6953785B2, “Estra-1,3,5(10)-triene derivatives” (priority 2000, dated 2005).

Structures are written as SMILES.

The first assay has as its target T1, recombinant human estrone sulfatase (Homo sapiens, UniProt P08842).
T1 sequence (P08842 22-583): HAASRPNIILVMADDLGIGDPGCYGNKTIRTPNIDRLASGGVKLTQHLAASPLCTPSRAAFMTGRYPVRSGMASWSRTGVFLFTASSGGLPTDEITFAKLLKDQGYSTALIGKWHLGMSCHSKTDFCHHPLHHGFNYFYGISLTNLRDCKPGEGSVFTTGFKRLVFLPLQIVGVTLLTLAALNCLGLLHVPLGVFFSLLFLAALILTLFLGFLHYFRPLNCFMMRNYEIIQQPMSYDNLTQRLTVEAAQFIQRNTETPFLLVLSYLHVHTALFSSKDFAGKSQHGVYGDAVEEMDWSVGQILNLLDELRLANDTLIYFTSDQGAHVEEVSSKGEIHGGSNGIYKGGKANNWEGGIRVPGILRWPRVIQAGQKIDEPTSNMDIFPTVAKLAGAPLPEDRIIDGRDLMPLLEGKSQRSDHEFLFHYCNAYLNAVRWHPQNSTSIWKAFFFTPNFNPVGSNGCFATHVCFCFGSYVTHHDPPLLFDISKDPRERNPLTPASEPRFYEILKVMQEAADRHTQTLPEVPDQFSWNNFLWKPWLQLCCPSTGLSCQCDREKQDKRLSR
The experiment in a line: Estrone sulfatase (steroid sulfatase) inhibition test (Method A), [3H]-estrone sulfate substrate. It counts as biochemical. Conditions: [6,7-3H]-estrone sulfate 6.67 μmol/L, pH 7.5, 37° C., 30 minutes, read-out: Inhibitory Activity against Steroid Sulfatase IC50. As for the experimental part: Estrone Sulfatase (Steroid Sulfatase) Inhibition Test (Method A)
[6,7-^3H]-Estrone sulfate (final concentration 6.67 μmol/L; 0.025 μCi/tube), recombinant human estrone sulfatase (33 ng/tube) and an estra-1,3,5(10)-triene derivative of each test concentration (the estra-1,3,5(10)-triene derivative was dissolved in 0.003 mL of DMSO) were added to a phosphate buffer (pH 7.5, final volume 0.15 mL) containing 0.25 mol/L of sucrose and 0.04 mol/L of nicotinamide, and the mixture was subjected to enzymatic reaction at 37° C. for 30 minutes. The recombinant human estrone sulfatase used herein was prepared from CHO (Chinese hamster ovary) cells, which were transfected with a human estrone sulfatase gene, after partial purification. After the enzymatic reaction, toluene (0.5 mL) was added to the reaction mixture followed by stirring, and the mixture was centrifuged at 9000 rpm for 5 minutes. The toluene extract layer was taken out, and the radioactivity of the [^3H]-estrone formed therein was measured with a liquid scintillation counter. The measurement was carried out at one time by duplication, and the assay fluctuation was 10% or less. The enzymatic reaction in the absence of the test compound was also carried out simultaneously. The inhibitory activity against estrone sulfatase of the test compound of each concentration was calculated according to the equation shown below. Inhibitory Activity against Estrone Sulfatase (%)=100−{100×[(A−C)/(B−C)]} wherein; • A: the amount of [^3H]-estrone formed in the presence of the test compound • B: the amount of [^3H]-estrone formed in the absence of the test compound • C: the amount of [^3H]-estrone formed in the absence of both of the recombinant human estrone sulfatase and the test compound.
(§1) The inhibitory activity against estrone sulfatase of the estra-1,3,5(10)-triene derivative tested can be designated by the concentration (IC50) of the derivative that reduces the estrone sulfatase activity to a half of that in the control system not containing the test compound.
For the compound `CC12CCC3c4ccc(OS(N)(=O)=O)cc4CCC3C1CCC2C(=O)N1CCCC1` (stereo not drawn) [Compound 73], the IC50 worked out at 6 nM. Same read-out and setting: to `COCCNC(=O)C1=CCC2C3CCc4cc(OS(N)(=O)=O)ccc4C3CCC12C` (stereo not drawn) [Compound 18] belongs 2.8 nM; to `C=CCNC(=O)C1=CCC2C3CCc4cc(OS(N)(=O)=O)ccc4C3CCC12C` (stereo not drawn) [Compound 10], 5.6 nM; to `CC12CCC3c4ccc(OS(N)(=O)=O)cc4CCC3C1CC=C2C(=O)NCC1CC1` (stereo not drawn) [Compound 9], 3.6 nM. For `CCCNC(=O)C=C1CCC2C3CCc4cc(OS(N)(=O)=O)ccc4C3CCC12C` (stereo not drawn) [Compound 81], the IC50 worked out at 6.2 nM. Still for that read-out and setting: to `CC12CCC3c4ccc(OS(N)(=O)=O)cc4CCC3C1CC=C2C(=O)Nc1cnccn1` (stereo not drawn) [Compound 40] belongs 9.4 nM; to `COC(=O)C(NC(=O)C1=CCC2C3CCc4cc(OS(N)(=O)=O)ccc4C3CCC12C)C(C)C` (stereo not drawn) [Compound 29], 4.5 nM; to `CC12CCC3c4ccc(OS(N)(=O)=O)cc4CCC3C1CC=C2C(=O)Nc1ccccc1` (stereo not drawn) [Compound 34], 10 nM. Still for that read-out and setting: the figure for `CC12CCC3c4ccc(OS(N)(=O)=O)cc4CCC3C1CC=C2C(=O)NC1CCCC1` (stereo not drawn) [Compound 7] is 1 nM.

On to `CC12CCC3c4ccc(OS(N)(=O)=O)cc4CCC3C1CC=C2C(=O)NCCCCO` (stereo not drawn) [Compound 22], for which the IC50 was 9.8 nM. Same read-out and setting: to `COC(=O)CCCCCNC(=O)C1=CCC2C3CCc4cc(OS(N)(=O)=O)ccc4C3CCC12C` (stereo not drawn) [Compound 14] belongs 10 nM; to `CC12CCC3c4ccc(OS(N)(=O)=O)cc4CCC3C1CC=C2C(=O)N1CCCC1` (stereo not drawn) [Compound 1], 4.4 nM. Still for that read-out and setting: to `COC(=O)C1CCCN1C(=O)C1=CCC2C3CCc4cc(OS(N)(=O)=O)ccc4C3CCC12C` (stereo not drawn) [Compound 33] belongs 5.1 nM. Still for that read-out and setting: the figure for `COCCNC(=O)C1CCC2C3CCc4cc(OS(N)(=O)=O)ccc4C3CCC12C` (stereo not drawn) [Compound 76] is 15.5 nM.

The next assay addresses T1, recombinant human estrone sulfatase. The experiment in a line: Estrone sulfatase (steroid sulfatase) inhibition test (Method B), 4-methylumbelliferyl sulfate substrate. It counts as biochemical. Conditions: 4-methylumbelliferyl sulfate 0.3 mmol/L, pH 7.5, 37° C., 1 hour, read-out: Inhibitory Activity against Steroid Sulfatase IC50. As to the method:
Estrone Sulfatase (Steroid Sulfatase) Inhibition Test (Method B)
4-Methylumbelliferyl sulfate (final concentration 0.3 mmol/L), recombinant human estrone sulfatase (7.8 ng/well) and an estra-1,3,5(10)-triene derivative of each test concentration (the estra-1,3,5(10)-triene derivative was dissolved in 0.001 mL of DMSO) were added to a phosphate buffer (pH 7.5, final volume 0.1 mL) containing 0.28 mol/L of sucrose and 0.04 mol/L of nicotinamide, and the mixture was subjected to enzymatic reaction at 37° C. for 1 hour. The recombinant human estrone sulfatase used herein was prepared from CHO (Chinese hamster ovary) cells, which were transfected with a human estrone sulfatase gene, after partial purification. After the enzymatic reaction, an aqueous solution of 2 mol/L glycine-sodium hydroxide (pH 10.3, 0.13 mL) was added thereto followed by stirring. Using a fluorescent plate reader (Cyto Fluor II), the fluorescent intensity of 4-methylumbelliferone formed in the system was measured. The measurement was carried out at one time by duplication, and the assay fluctuation was 10% or less. The enzymatic reaction in the absence of the test compound was also carried out simultaneously. The inhibitory activity against estrone sulfatase of the test compound of each concentration was calculated according to the equation shown below. Inhibitory Activity against Estrone Sulfatase (%)=100−[100×(A/B)] wherein; • A: the amount of 4-methylumbelliferone formed in the presence of the test compound, • B: the amount of 4-methylumbelliferone formed in the absence of the test compound.
as §1
Regarding `CCn1nccc1NC(=O)C1=CCC2C3CCc4cc(OS(N)(=O)=O)ccc4C3CCC12C` (stereo not drawn) [Compound 62], the IC50 was 8.9 nM. The same measure, in the same setting: to `CC12CCC3c4ccc(OS(N)(=O)=O)cc4CCC3C1CC=C2C(=O)N1CCN(c2ccccn2)CC1` (stereo not drawn) [Compound 5] belongs 3.7 nM; to `CCOC(=O)CC1CCC2C3CCc4cc(OS(N)(=O)=O)ccc4C3CCC12C` (stereo not drawn) [Compound 83], 12 nM.

For the compound `Cc1coc(C2=CCC3C4CCc5cc(OS(N)(=O)=O)ccc5C4CCC23C)n1` (stereo not drawn) [Compound 92], the IC50 stood at 21 nM. On to `COc1ccc(NC(=O)C2=CCC3C4CCc5cc(OS(N)(=O)=O)ccc5C4CCC23C)cn1` (stereo not drawn) [Compound 39], for which the IC50 is 3.7 nM. Same read-out and setting: to `CCCNC(=O)CC1CCC2C3CCc4cc(OS(N)(=O)=O)ccc4C3CCC12C` (stereo not drawn) [Compound 85] belongs 10.3 nM; to `CC12CCC3c4ccc(OS(N)(=O)=O)cc4CCC3C1CC=C2C(=O)Nc1ccon1` (stereo not drawn) [Compound 58], 11 nM. The same measure, in the same setting: the figure for `CC12CCC3c4ccc(OS(N)(=O)=O)cc4CCC3C1CC=C2c1cccnc1` (stereo not drawn) [Compound 90] is 12 nM; for `CC12CCC3c4ccc(OS(N)(=O)=O)cc4CCC3C1CCC2CC(=O)N1CCOCC1` (stereo not drawn) [Compound 88] it is 11 nM; for `CC12CCC3c4ccc(OS(N)(=O)=O)cc4CCC3C1CC=C2C(=O)NNc1ccccn1` (stereo not drawn) [Compound 69] it is 6 nM. With `COCCOCCOC(=O)C1=CCC2C3CCc4cc(OS(N)(=O)=O)ccc4C3CCC12C` (stereo not drawn) [Compound 71], the IC50 is 17 nM. Still for that read-out and setting: the figure for `CC12CCC3c4ccc(OS(N)(=O)=O)cc4CCC3C1CC=C2C(=O)NCCCc1ccncc1` (stereo not drawn) [Compound 55] is 4.5 nM; for `Cc1cnc(CNC(=O)C2=CCC3C4CCc5cc(OS(N)(=O)=O)ccc5C4CCC23C)cn1` (stereo not drawn) [Compound 49] it is 24.2 nM; for `CC12CCC3c4ccc(OS(N)(=O)=O)cc4CCC3C1CC=C2C(=O)NCc1ccc(C(=O)O)cc1` (stereo not drawn) [Compound 37] it is 6 nM. On the same count and under the same terms, the figure for `COc1ccnc(CNC(=O)C2=CCC3C4CCc5cc(OS(N)(=O)=O)ccc5C4CCC23C)c1` (stereo not drawn) [Compound 47] is 5 nM. The same measure, in the same setting: the figure for `CC(C)(CO)NC(=O)C1=CCC2C3CCc4cc(OS(N)(=O)=O)ccc4C3CCC12C` (stereo not drawn) [Compound 23] is 26 nM.
